Experimental data: paper PMC4747042 (Molecular microbiology, 2009)
pIC50: −log10 of the molar value.

Target: T1, MenA (Mycobacterium tuberculosis, UniProt P9WIP3)
T1 sequence (P9WIP3 1-292): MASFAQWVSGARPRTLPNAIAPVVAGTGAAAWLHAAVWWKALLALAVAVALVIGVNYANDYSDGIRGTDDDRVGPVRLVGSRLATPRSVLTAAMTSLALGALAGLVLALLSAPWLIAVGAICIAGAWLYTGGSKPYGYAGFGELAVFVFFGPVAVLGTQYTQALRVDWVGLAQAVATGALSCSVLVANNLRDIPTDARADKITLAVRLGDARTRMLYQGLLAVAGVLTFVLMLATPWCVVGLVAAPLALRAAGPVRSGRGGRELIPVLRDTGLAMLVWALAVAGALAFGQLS
Format: biochemical

SMILES: C=CCN(C)CCCCCCOc1ccc(C(=O)c2ccc(Br)cc2)c(F)c1 [Ro 48-8071]
- pIC50: 5.05
